# Where a name gives a salt, the structure may show the parent alone.
# Assays:
# KRAS-G12D and SOS1 = target: T1, KRAS-G12D and SOS1 (Homo sapiens, UniProt P01116, G12D); test: Inhibition of KRAS-G12D/SOS1 binding (Cisbio binding kit, 665/615 ratio), Effect Embodiment A; details: read-out: GTP-KRAS-G12D:SOS1 IC50
# T1 construct: purchased
# Procedure, shortened: (§1)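 Compounds underwent 3-fold dilution from their storage solutions (11 points), were transferred to assay wells in duplicate with DMSO held at 1% final, and were briefly centrifuged.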
# KRAS_G12D and cRAF = target: T2, KRAS_G12D and cRAF (Homo sapiens, UniProt P01116, G12D); test: Inhibition of KRAS_G12D/cRAF binding (Cisbio binding kit, 665/615 ratio), Effect Embodiment B; details: read-out: GTP-KRAS-G12D:CRAF IC50
# T2 construct: purchased
# T2 sequence (P01116 1-188 isoform P01116-2 G12D): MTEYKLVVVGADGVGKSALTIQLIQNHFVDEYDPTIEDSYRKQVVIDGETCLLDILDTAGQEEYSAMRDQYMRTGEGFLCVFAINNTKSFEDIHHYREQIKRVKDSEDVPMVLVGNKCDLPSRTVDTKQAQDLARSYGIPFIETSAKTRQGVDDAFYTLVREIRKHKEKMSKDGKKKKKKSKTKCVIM
# Procedure, shortened: as §1
# KRAS_WT and SOS1 = target: T3, KRAS_WT and SOS1 (Homo sapiens, UniProt P01116); test: Inhibition of KRAS_WT/SOS1 binding (Cisbio binding kit, 665/615 ratio), Effect Embodiment C; details: read-out: GTP-KRAS-WT:SOS1 IC50
# T3 construct: purchased
# T3 sequence (P01116 1-188 isoform P01116-2): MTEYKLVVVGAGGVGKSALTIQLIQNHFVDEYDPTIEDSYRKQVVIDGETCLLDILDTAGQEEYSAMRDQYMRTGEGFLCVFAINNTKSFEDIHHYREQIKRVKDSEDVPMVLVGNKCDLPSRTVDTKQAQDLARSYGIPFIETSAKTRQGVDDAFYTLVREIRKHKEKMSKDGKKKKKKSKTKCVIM
# Procedure, shortened: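 Compounds tested as 3-fold, 11-point dilutions in duplicate at 1% DMSO final against the KRAS_WT/SOS1 binding system. IC50 derived by nonlinear regression fit.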
# T1 sequence (P01116 1-188 isoform P01116-2 G12D): as the sequence (P01116 1-188 isoform P01116-2 G12D) above
Compound,IC50 (KRAS-G12D and SOS1) [nM],IC50 (KRAS_G12D and cRAF) [nM],IC50 (KRAS_WT and SOS1) [nM]
"Oc1cc(-c2c(Cl)cc3c(N4CC5CCC(C4)N5)nc(OCC(F)CN4C5CCC4COC5)nc3c2F)c2ccccc2c1 (single isomer, unassigned) [Compound 179b, ((4R or 4S)-4-(2-((2S or 2R)-3-(3-oxa-8-azabicyclo[3.2.1]octan-8-yl)-2-fluoropropoxy)-4-((1R,5S)-3,8-diazabicyclo[3.2.1]octan-3-yl)-6-chloro-8-fluoroquinazolin-7-yl)naphthalen-2-ol diformate]",60,134,5400
"Oc1cc(-c2c(Cl)cc3c(N4CC5CCC(C4)N5)nc(OCCCN4C5CCC4COC5)nc3c2F)c2c(F)c(F)ccc2c1 (single isomer, unassigned) [Compound 248, (4S or 4R)-4-(2-(3-(3-oxa-8-azabicyclo[3.2.1]octan-8-yl)propoxy)-4-(1R,5S)-3,8-diazabicyclo[3.2.1]octan-3-yl)-6-chloro-8-fluoroquinazolin-7-yl)-5,6-difluronaphththalen-2-ol formate]",31.1,67.2,98.1
"C[C@@H](COc1nc(N2C[C@H]3CC[C@@H](C2)N3)c2cc(Cl)c(-c3cc(O)cc4ccccc34)c(F)c2n1)CN1[C@@H]2CCC[C@H]1COC2 (single isomer, unassigned) [Compound 210, (S or R) 4-(2-((R)-3-((1R,5S)-3-oxa-9-azabicyclo[3.3.1]nonan-9-yl)-2-methylpropoxy)-4-((1R,5S)-3,8-diazabicyclo[3.2.1]octan-3-yl)-6-chloro-8-fluoroquinazolin-7-yl)naphthalen-2-ol diformate]",17.8,17.8,2070
"C[C@@H](COc1nc(N2CC3CCC(C2)N3)c2cc(Cl)c(-c3cc(O)cc4ccc(F)c(F)c34)c(F)c2n1)CN1C2CCC1COC2 (single isomer, unassigned) [Compound 228, ((4S or 4R) 4-(2-((2R)-3-(3-oxa-8-azabicyclo[3.2.1]octan-8-yl)-2-methylpropoxy)-4-((1R,5S)-3,8-diazabicyclo[3.2.1]octan-3-yl)-6-chloro-8-fluoroquinazolin-7-yl)-5,6-difluoronaphthalen-2-ol formate]",14.2,18.3,92.3
"CN(CCCOc1nc(N2CC3CCC(C2)N3)c2cc(Cl)c(-c3cc(O)cc4ccccc34)c(F)c2n1)CCC(O)CO (single isomer, unassigned) [Compound 148, 4-((3-((S or R)-4-((1R,5S)-3,8-diazabicyclo[3.2.1]octan-3-yl)-6-chloro-8-fluoro-7-(3-hydroxynaphthalen-1-yl)quinazolin-2-yl)oxy)propyl)(methyl)amino)butan-1,2-diol ditrifluoroacetate]",28.6,122,2970
"CC(C)NCCCOc1nc(N2CC3CCC(C2)N3)c2cc(Cl)c(-c3cc(O)cc4ccccc34)c(F)c2n1 (single isomer, unassigned) [Compound 101, 4-((S or R)-4-((1R,5S)-3,8-diazabicyclo[3.2.1]octan-3-yl)-6-chloro-8-fluoro-2-(3-(isopropylamino)propoxy)quinazolin-7-yl)naphthalen-2-ol dihydrochloride]",31.7,182,2470
"C[C@@H]1CN(CCCOc2nc(N3CC4CCC(C3)N4)c3cc(Cl)c(-c4cc(O)cc5ccccc45)c(F)c3n2)CCO1 (single isomer, unassigned) [Compound 241, 4-((S or R)-4-((1R,5S)-3,8-diazacyclo[3.2.1]octan-3-yl)-6-chloro-8-fluoro-2-(3-((R)-2-methylmorpholinyl)propoxy)quinazolin-7-yl)naphthalen-2-ol formate]",49.7,203,3600

# Reference: patent US20230365563A1, “QUINAZOLINE COMPOUND AND APPLICATION THEREOF” (SHANGHAI PHARMACEUTICALS HOLDING CO., LTD., priority 2020, published 2023)
